Source: patent US8637040B2, “Genus-wide chlamydial peptide vaccine antigens” (priority 2008, dated 2014)

Assays:
[1] = test system: human sera; assay: ELISA of human serum samples on 4 peptides (Example XI); format: binding
Procedure: Blood was collected prior to immunizations and prior to the two boosts. Sera were tested in ELISA. The ELISA method used in the present examples, in which many if not all the parameters and conditions may be varied or modified in ways that are completely conventional in the art, is described below. • 1. 96 well plates (Immulon HBX4) were coated with 50 μl of diluted antigen (peptides at 1 μg/well made in carbonate buffer) and incubated overnight at 4° C. • 2. Unbound antigen was removed by flicking the contents of the plate into a sink without further washing. • 3. Non-specific binding was blocked or prevented by adding 300 μL/well of 4% BSA/PBS-Tween 20 (0.05%). This was allowed to incubate for 2 hour at room temperature. • 4. The plates were washed once with PBS-Tween 20 (0.05%) and 50 μl of primary antibody was added per well at appropriate dilutions. When using serum, the starting dilution was 1:40 and was further diluted by doublings to 1:80, 1:160, and 1:320 (or higher as desired). Plates were incubated for 1 hour at 37° C. • 5. Plates were washed three times with PBS-Tween (0.05%) as above and 100 μl of secondary antibody was added per well at appropriate dilutions. For alkaline phosphatase-conjugated goat anti-mouse IgG-AP, a dilution of 1:500 was used here. Plates were incubated for 1 hour at 37° C. • 6. Plates were again washed three times as above and 200 μl of substrate solution for Alkaline phosphatase (p-nitro phenyl phosphate or pNPP) was added at a concentration of 5 mg/ml. The color reaction was read in an automated microplate reader at a frequency of […] and the absorbance (or optical density) was registered (referred to as A405 or OD405) Several important observations were made in these tests against the 4 peptides: (a) all 4 peptides were immunogenic and induced increasing anti-peptide responses with subsequent boosts in all mice (except in one non-responder) (FIG. 3). […] See also FIG. 16A-16B
Human sera were tested by PCR for expression of several chlamydial genes, by IHC against C. trachomatis-infected cells and by ELISA against several of the peptides of the present invention. Results are shown in Table 7 (below) which include results from PCR-studies for presence of DNA encoding the chlamydial Major Outer Membrane Protein (MOMP) in human peripheral blood mononuclear cells (PBMC) (which are primarily lymphocytes and monocytes) and cervical swabs
Also shown is IHC staining of C. trachomatis-infected human HEp2 cells and binding of antibodies in the patient samples to four peptides of the present invention (Pep4, 7, 8, and 10) in ELISA.

[2] = test system: C trachomatis; assay: DFA staining of vaginal smears after challenge of peptide-immunized mice; format: in vivo, mouse; details: mice immunized three times at 100 μg doses; days 7 and 14 post-challenge
Text: Mice are challenged with a human biovar of C trachomatis (K or E serovars for urogenital infections; C or B serovars for ocular infection).
Groups of 4-8 mice are “masked” as to pretreatment before challenge with live elementary bodies (EB). At weekly intervals through at least 4 wks, vaginal (or conjunctival) swabs are collected for isolation culture and direct fluorescence antibody staining for EB.
Using the murine models described above, the present inventors immunized mice with one of the four peptides (Pep4, 7, 8 or 10) administered three times at 100 μg doses. Results of direct fluorescent antibody (DFA) staining are summarized for days 7 and 14 post-challenge in FIGS. 10-11.

[3] = Encapsulation of Pep4 in PLGA nanoparticles and peptide release; format: physicochemical; details: carbonate buffer, ELISA with anti-Pep4 antiserum standard curve
Procedure: One preferred approach to the preparation of peptide-loaded polylactide (PLA) or PLGA micro- and/or nanoparticles follows. Biodegradable PLA or PLGA nanoparticles (NPs) loaded with the selected peptides is prepared using a modified version of the double emulsion solvent evaporation technique, in a procedure similar to that previously described by Li and co-workers (139). […] Briefly, an aqueous solution of the peptide is emulsified in dichloromethane containing the PLGA (using an ultrasonic homogenizer), thus forming the primary water-in-oil (w/o) emulsion. The prepared w/o emulsion is then emulsified in a second aqueous phase containing polyvinyl alcohol (PVA) as stabilizer, thus resulting in the multiple w/o/w emulsion. The double emulsion is later added into a large volume of aqueous solution of PVA, and stirred for several hours to evaporate the organic solvent. The resulting nanoparticles are then collected by centrifugation and washed (removing PVA) several times before lyophilization to remove the remaining water (139,140). The powder is kept at −80° C. until use. […] Optimal peptide loading concentrations for protective immunization are determined empirically, e.g., by comparing orally delivered peptide-NP to free peptide delivered subcutaneously. […]

[4] = test system: C. trachomatis-infected HEp2 cells; assay: Indirect immunofluorescence of immune sera on infected HEp2 cells; format: cell-based, human; details: sera 1:40 dilution, FITC anti-mouse IgG
Text: Micrographs of HEp2 cells infected with C. trachomatis are immunostained (by indirect immunofluorescence) with sera (1:40 dilution) from mice immunized with the designated peptides (A-E) or soluble. mAb2 (F). FITC anti-mouse IgG was the detecting antibody. Arrows point to distinct differences in targets of the immune sera. Antibodies in panels A-C recognized EB and RB and possibly some matrix material in the inclusion. Antibodies in D-E also recognized targets in the inclusion matrix and inclusion membrane, similar to immune sera raised against the older vaccine candidate, the entire mAb2 (F). 40× original magnification. Samples are counterstained with Evans blue.
HEp2 cells were infected with C. trachomatis were subjected to cytocentrifugation to deposit them onto microscope slides. After fixation (MeOH) they were stained with sera (1:40 dilution) from mice immunized with the indicated peptides or with soluble mAb2. The binding of the antibodies to the cells was detected using a fluorescent (FITC-labeled) secondary Ab, an anti-mouse IgG. Results appear in FIGS. 9A-F.

For AFPQFRSATLLL [Pep4], the “ELISA 1:40 on 4 peptides Scale: 1+-3+” value ([1]; human serum sample # 1) was 2, the “ELISA 1:40 on 4 peptides Scale: 1+-3+” value ([1]; human serum sample # 2) was 0.75 and the “ELISA 1:40 on 4 peptides Scale: 1+-3+” value ([1]; human serum sample # 3) was 2.5. For the same sequence, the “ELISA 1:40 on 4 peptides Scale: 1+-3+” value ([1]; human serum sample # 5) was 2, the “ELISA 1:40 on 4 peptides Scale: 1+-3+” value ([1]; human serum sample # 7) was 0.75 and the “ELISA 1:40 on 4 peptides Scale: 1+-3+” value ([1]; human serum sample # 8) was 3. The “ELISA 1:40 on 4 peptides Scale: 1+-3+” value ([1]; human serum sample # 9) was 3, the “ELISA 1:40 on 4 peptides Scale: 1+-3+” value ([1]; human serum sample # 10) was 3 and the “ELISA 1:40 on 4 peptides Scale: 1+-3+” value ([1]; human serum sample # 12) was 2. The “ELISA 1:40 on 4 peptides Scale: 1+-3+” value ([1]; human serum sample # 13) was 2, the “ELISA 1:40 on 4 peptides Scale: 1+-3+” value ([1]; human serum sample # 16) was 2 and the “ELISA 1:40 on 4 peptides Scale: 1+-3+” value ([1]; human serum sample # 18) was 2.5. The “ELISA 1:40 on 4 peptides Scale: 1+-3+” value ([1]; human serum sample # 21) was 1.5, the “ELISA 1:40 on 4 peptides Scale: 1+-3+” value ([1]; human serum sample # 22) was 1.5 and the “ELISA 1:40 on 4 peptides Scale: 1+-3+” value ([1]; human serum sample # 23) was 2. For the same sequence, the “ELISA 1:40 on 4 peptides Scale: 1+-3+” value ([1]; human serum sample # 24) was 3, the “ELISA 1:40 on 4 peptides Scale: 1+-3+” value ([1]; human serum sample # 26) was 2 and the DFA scores [2] was “reduced DFA scores”. The “bacterial shedding measured by DFA staining” value [2] was “reduced bacterial shedding”, the release of peptide [3] was “about 3.8 μg/ml/day” and the “structures recognized by immune sera in infected cells” value [4] was “recognized EB and metabolically active, non-infectious reticulate bodies (RB)”.
